Data: patent US20140121168A1, “ANTAGONISTS OF TRPV1 RECEPTOR” (ANTAGONISTS OF TRPV1 RECEPTOR, priority 2011, published 2014)
Where a SMILES comes first, the peptide text is derived from it. Bridges are numbered along the chain shown (N, C = ends). [ ]: non-standard residue; d: D form. d(aThr) = C[C@@H](O)[C@@H](N)C(=O)O; Dhb = C/C=C(\N)C(=O)O

Biological target: TRPV1 (Homo sapiens, UniProt Q8NER1)
Assay: TRPV1 assays, inhibition of capsaicin response (cell line not stated for the IC50 values)

Sequence of TRPV1 (Q8NER1 whole entry): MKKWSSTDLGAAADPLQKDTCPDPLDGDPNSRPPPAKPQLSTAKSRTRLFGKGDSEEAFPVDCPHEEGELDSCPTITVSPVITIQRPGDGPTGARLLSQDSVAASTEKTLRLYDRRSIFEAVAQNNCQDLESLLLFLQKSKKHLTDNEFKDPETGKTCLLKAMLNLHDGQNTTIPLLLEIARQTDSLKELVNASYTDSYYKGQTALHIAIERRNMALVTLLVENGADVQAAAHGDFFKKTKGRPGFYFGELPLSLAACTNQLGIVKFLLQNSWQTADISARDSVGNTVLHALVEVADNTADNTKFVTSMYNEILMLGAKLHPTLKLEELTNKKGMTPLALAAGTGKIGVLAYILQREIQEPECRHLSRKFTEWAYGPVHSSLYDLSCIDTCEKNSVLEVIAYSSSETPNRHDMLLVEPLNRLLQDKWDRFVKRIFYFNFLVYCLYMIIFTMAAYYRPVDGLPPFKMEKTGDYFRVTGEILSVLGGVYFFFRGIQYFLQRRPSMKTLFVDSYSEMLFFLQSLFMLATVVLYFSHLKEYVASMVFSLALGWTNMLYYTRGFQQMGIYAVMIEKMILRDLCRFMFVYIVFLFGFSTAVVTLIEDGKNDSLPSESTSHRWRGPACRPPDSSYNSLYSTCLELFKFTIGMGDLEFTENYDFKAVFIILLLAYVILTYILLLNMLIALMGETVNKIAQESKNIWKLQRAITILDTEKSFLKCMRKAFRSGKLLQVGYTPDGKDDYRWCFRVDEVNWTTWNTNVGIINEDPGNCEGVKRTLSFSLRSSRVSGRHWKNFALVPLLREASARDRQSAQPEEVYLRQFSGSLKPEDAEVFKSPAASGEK

Compound: C/C=C1\NC(=O)[C@H](C)NC(=O)[C@H](C(C)C)NC(=O)[C@H](NC(=O)[C@H](Cc2ccccc2)NC(=O)[C@@H](CC(C)C)NC(=O)[C@@H](Cc2ccccc2)NC(C)=O)[C@@H](C)OC1=O [compound 1, A-3302-B] (Ac-[dF][dL]F[d(aThr)]VA[Dhb]; ester 4-C)
- inhibitory activity on TRPV1 (in words): substantial inhibitory activity

Compound: Nobilamide E [compound 8]
- inhibitory activity on TRPV1 (in words): inactive
